Assays:
[1] = Pharmacokinetic properties in mouse after single intravenous and oral administration; settings: for half-life / Cmax / clearance / Vd: female, iv, 0.2 mg/kg; for clearance: CL; for clearance / Vd: iv administration; for Vd: Vss
Method: Female Wistar rats/mice (n=6) received either a single intravenous (bolus) injection or an oral administration (by gavage) of the tested compound.
The concentrations of the compounds in plasma, feces were quantified using an UPLC method with tandem mass spectrometric detection (LC-MS/MS) previously developed at the ‘Institute of Drug Metabolism and Pharmacokinetics’. […] The detection of the compounds was performed using multiple reaction monitoring in the positive ionization mode. Plasma samples were spiked with internal standard (20 μl) and the analyte was extracted from the matrix using tertiary-butyl methyl ether (tBME). The organic phase was evaporated to dryness under a stream of nitrogen. The residue was dissolved in acetonitrile/0.1% formic acid for LC-MS/MS analysis. Feces samples were homogenized with 4-times their volume of an ethanol/water mixture (4:1, v/v). Aliquots of the aqueous-ethanolic extracts were spiked with internal standard, diluted with acetonitrile/water (1:1, v/v) and directly injected into the LC-MS/MS system.
Pharmacokinetic parameters Cmax and tmax were taken from the observed data. […] AUC values were calculated by non-compartmental analysis using the linear up/log down method. Numerical data for mean plasma concentrations and derived pharmacokinetic parameters were rounded to 3 significant digits for presentation.

human A2A receptor = target: T1, human A2A receptor (Homo sapiens, UniProt P29274); assay: cAMP (HTRF) functional assay, recombinant HEK293 cells expressing human A2A receptor, agonist NECA; assay type: cell-based
T1 construct: expressed in transfected cells; host or cells: HEK293
Procedure, shortened: (§1)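 Cells were seeded, then treated with forskolin, test compound and agonist. After a 30 min incubation, HTRF detection reagents were added and intracellular cAMP was read. Values were scaled between an inhibitor control and DMSO before fitting.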

human A2B receptor = target: T2, human A2B receptor (Homo sapiens, UniProt P29275); assay: cAMP (HTRF) functional assay, recombinant HEK293 cells expressing human A2B receptor, agonist NECA; assay type: cell-based
T2 construct: expressed in transfected cells; host or cells: HEK293
T2 sequence (P29275 1-332): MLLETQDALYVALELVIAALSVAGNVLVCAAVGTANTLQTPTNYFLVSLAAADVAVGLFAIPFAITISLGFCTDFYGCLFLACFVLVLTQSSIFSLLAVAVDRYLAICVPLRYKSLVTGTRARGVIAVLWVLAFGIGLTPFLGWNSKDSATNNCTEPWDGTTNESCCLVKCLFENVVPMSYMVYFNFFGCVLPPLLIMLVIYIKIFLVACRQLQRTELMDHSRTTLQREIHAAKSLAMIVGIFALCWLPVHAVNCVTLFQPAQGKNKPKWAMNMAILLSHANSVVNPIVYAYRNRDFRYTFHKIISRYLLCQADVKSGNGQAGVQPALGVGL
Procedure, shortened: as §1

human A1 receptor = target: T3, human A1 receptor (Homo sapiens, UniProt P30542); assay: cAMP (HTRF) functional assay, recombinant CHO cells expressing human A1 receptor, forskolin + agonist CPA; assay type: cell-based
T3 construct: expressed in transfected cells; host or cells: CHO
T3 sequence (P30542 1-326): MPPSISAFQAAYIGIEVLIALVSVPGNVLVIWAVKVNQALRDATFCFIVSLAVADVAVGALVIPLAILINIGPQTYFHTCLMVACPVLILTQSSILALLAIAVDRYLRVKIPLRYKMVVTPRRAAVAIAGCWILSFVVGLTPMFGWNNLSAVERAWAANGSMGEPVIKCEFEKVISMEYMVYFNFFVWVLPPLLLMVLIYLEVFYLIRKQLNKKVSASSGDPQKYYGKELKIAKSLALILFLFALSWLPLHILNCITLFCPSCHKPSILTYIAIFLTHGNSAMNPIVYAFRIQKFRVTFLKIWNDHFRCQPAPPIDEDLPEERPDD
Procedure, shortened: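 Recombinant CHO lines carrying either receptor receive forskolin, compound and the matching agonist, CPA or IB-MECA. After 30 min, HTRF reagents are added and cAMP is quantified. Values are normalized to inhibitor and neutral DMSO controls, then fitted.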

human A3 receptor = target: T4, human A3 receptor (Homo sapiens, UniProt P0DMS8); assay: cAMP (HTRF) functional assay, recombinant CHO cells expressing human A3 receptor, forskolin + agonist IB-MECA; assay type: cell-based
T4 construct: expressed in transfected cells; host or cells: CHO
T4 sequence (P0DMS8 1-318): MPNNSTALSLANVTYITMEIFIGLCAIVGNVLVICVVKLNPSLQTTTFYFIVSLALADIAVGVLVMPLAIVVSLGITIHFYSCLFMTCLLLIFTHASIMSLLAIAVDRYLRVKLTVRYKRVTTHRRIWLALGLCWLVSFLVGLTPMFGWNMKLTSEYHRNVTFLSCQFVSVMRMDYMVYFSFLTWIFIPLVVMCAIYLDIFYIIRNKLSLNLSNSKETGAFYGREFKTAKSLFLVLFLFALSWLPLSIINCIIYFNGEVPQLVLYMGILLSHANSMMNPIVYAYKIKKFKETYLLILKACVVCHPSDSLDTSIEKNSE
Method: The functional activities of human A2A, A2B, A1 and A3 receptors were determined by quantification of cAMP, being the second messenger for adenosine receptors.
For human A1 and A3 receptors, recombinant CHO cells, expressing either A1 or A3-receptor, were used. As both receptors couple to Gi proteins, the assay protocol was adapted:
Cells were seeded into 384-well plates, forskolin, test compounds and agonists (CPA for A1- and IB-MECA for A3-receptor) were added. After 30 min incubation, HTRF reagents (cAMP dynamic 2, Cis Bio) were added and the cellular cAMP levels were determined using the ENVISION (Perkin Elmer) plate reader. Obtained raw data were normalized against the inhibitor control and the neural control (DMSO) and the normalized data were fitted using GeneData software.

T1 sequence (P29274 whole entry): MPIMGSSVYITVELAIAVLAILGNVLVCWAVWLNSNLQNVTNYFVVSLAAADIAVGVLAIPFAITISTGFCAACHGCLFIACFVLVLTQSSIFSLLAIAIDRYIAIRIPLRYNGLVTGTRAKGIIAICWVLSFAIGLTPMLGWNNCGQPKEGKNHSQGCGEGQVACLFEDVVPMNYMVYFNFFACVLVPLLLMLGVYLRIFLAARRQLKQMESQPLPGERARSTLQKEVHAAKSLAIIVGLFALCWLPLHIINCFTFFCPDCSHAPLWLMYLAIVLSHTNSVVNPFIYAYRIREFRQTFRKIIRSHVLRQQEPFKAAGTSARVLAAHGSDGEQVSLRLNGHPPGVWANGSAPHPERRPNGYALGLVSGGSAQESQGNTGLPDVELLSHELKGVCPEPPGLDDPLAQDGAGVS

IC50 (human A2A receptor) | IC50 (human A2B receptor) | IC50 (human A1 receptor) | IC50 (human A3 receptor) | Structure (SMILES) | Feces iv ([1]; % of dose in feces after iv, @0.2 (iv dose 0.2 mg/kg)) | half-life ([1]; in vivo) | Cmax ([1]; plasma) | clearance ([1]; plasma) | Vd ([1]; plasma) | Cmax ([1]; in vivo)
– | – | – | – | COCCn1cc(C(=O)Nc2nc3c(OC)ccc(N4CCOCC4)c3s2)cn1 [Benzothiazole analogue to No. 4, reference compound] | 2.6@0.2% | 19.9 min | 940 ng/mL | 36.3 mL/min/kg | 0.946 L/kg | –
– | – | – | – | COc1ncc(N2CCOCC2)c2sc(NC(=O)N3CCC(C)(O)CC3)nc12 [compound 1, 4-Hydroxy-4-methyl-piperidine-1-carboxylic acid (4-methoxy-7-morpholin-4-yl-thiazolo[4,5-c]pyridin-2-yl)-amide] | – | 10.3 min | – | 114 mL/min/kg | 1.45 L/kg | 449 ng/mL
< 10 nM | < 100 nM | > 1000 nM | > 1000 nM | COc1ncc(-c2ccccc2)c2sc(NC(=O)N3CC[C@]4(CCCOC4)C3)nc12 [compound 205, (R)-7-Oxa-2-aza-spiro[4.5]decane-2-carboxylic acid (4-methoxy-7-phenyl-thiazolo[4,5-c]pyridin-2-yl)-amide] | – | – | – | – | – | –
< 10 nM | < 100 nM | < 1000 nM | > 1000 nM | COc1ncc(-c2ccccc2)c2sc(NC(=O)N3CC[C@]4(CCOC4)C3)nc12 [compound 207, (S)-2-Oxa-7-aza-spiro[4.4]nonane-7-carboxylic acid (4-methoxy-7-phenyl-thiazolo[4,5-c]pyridin-2-yl)-amide] | – | – | – | – | – | –
< 10 nM | < 100 nM | > 1000 nM | > 1000 nM | COc1ncc(-c2ccccc2)c2sc(NC(=O)N3CC[C@@]4(CCOC4)C3)nc12 [compound 208, (R)-2-Oxa-7-aza-spiro[4.4]nonane-7-carboxylic acid (4-methoxy-7-phenyl-thiazolo[4,5-c]pyridin-2-yl)-amide] | – | – | – | – | – | –
< 10 nM | < 100 nM | > 1000 nM | > 1000 nM | COc1ncc(-c2cccc(F)c2F)c2sc(NC(=O)N3CCC4(CCOCC4)C3)nc12 [compound 209, 8-Oxa-2-aza-spiro[4.5]decane-2-carboxylic acid [7-(2,3-difluoro-phenyl)-4-methoxy-thiazolo[4,5-c]pyridin-2-yl]-amide] | – | – | – | – | – | –
< 10 nM | < 100 nM | > 1000 nM | > 1000 nM | COc1ncc(-c2cc(F)ccc2F)c2sc(NC(=O)N3CCC4(CCOCC4)C3)nc12 [compound 210, 8-Oxa-2-aza-spiro[4.5]decane-2-carboxylic acid [7-(2,5-difluoro-phenyl)-4-methoxy-thiazolo[4,5-c]pyridin-2-yl]-amide] | – | – | – | – | – | –
< 10 nM | < 100 nM | < 1000 nM | > 1000 nM | COc1ncc(-c2ccccc2)c2sc(NC(=O)c3ccc(N4C(=O)CCC4=O)cc3)nc12 [compound 213, 4-(2,5-Dioxo-pyrrolidin-1-yl)-N-(4-methoxy-7-phenyl-thiazolo[4,5-c]pyridin-2-yl)-benzamide] | – | – | – | – | – | –
< 10 nM | < 100 nM | > 1000 nM | > 1000 nM | COc1nc(Cl)c(-c2ccccc2)c2sc(NC(=O)N3CCC4(CCOCC4)C3)nc12 [compound 220, 8-Oxa-2-aza-spiro[4.5]decane-2-carboxylic acid (6-chloro-4-methoxy-7-phenyl-thiazolo[4,5-c]pyridin-2-yl)-amide] | – | – | – | – | – | –
< 10 nM | < 10 nM | < 1000 nM | < 1000 nM | COCCOc1cccc(-c2cnc(OC)c3nc(NC(=O)c4cnn(CCOC)c4)sc23)c1 [compound 233, N-{4-methoxy-7-[3-(2-methoxyethoxy)phenylH]-[1,3]thiazolo[4,5-c]pyridin-2-yl}-1-(2-methoxyethyl)-1H-pyrazole-4-carboxamide] | – | – | – | – | – | –
< 10 nM | < 10 nM | < 100 nM | < 100 nM | COCCOc1cccc(-c2c(F)nc(OC)c3nc(NC(=O)N4CCC5(CCOCC5)C4)sc23)c1 [compound 234, N-{6-fluoro-4-methoxy-7-[3-(2-methoxyethoxy)phenyl]-[1,3]thiazolo[4,5-c]pyridin-2-yl}-8-oxa-2-azaspiro[4.5]decane-2-carboxamide] | – | – | – | – | – | –
< 10 nM | < 10 nM | < 100 nM | < 1000 nM | COc1ncc(C2CCOCC2)c2sc(NC(=O)c3cnn(C)c3)nc12 [compound 235, N-[4-methoxy-7-(oxan-4-yl)-[1,3]thiazolo[4,5-c]pyridin-2-yl]-1-methyl-1H-pyrazole-4-carboxamide] | – | – | – | – | – | –
< 100 nM | < 100 nM | > 1000 nM | > 1000 nM | COc1ccccc1-c1cnc(OC)c2nc(NC(=O)N3CCC4(CCOCC4)C3)sc12 [compound 236, N-[4-methoxy-7-(2-methoxyphenyl)-[1,3]thiazolo[4,5-c]pyridin-2-yl]-8-oxa-2-azaspiro[4.5]decane-2-carboxamide] | – | – | – | – | – | –
< 10 nM | < 10 nM | < 10 nM | < 1000 nM | COc1ncc(C2=CCOCC2)c2sc(NC(=O)c3cnn(C)c3)nc12 [compound 238, N-[7-(3,6-dihydro-2H-pyran-4-yl)-4-methoxy-[1,3]thiazolo[4,5-c]pyridin-2-yl]-1-methyl-1H-pyrazole-4-carboxamide] | – | – | – | – | – | –
< 100 nM | > 1000 nM | > 1000 nM | > 1000 nM | COc1ccc(-c2cnc(OC)c3nc(NC(=O)N4CCC5(CCOCC5)C4)sc23)c(OC)n1 [compound 239, N-[7-(2,6-dimethoxypyridin-3-yl)-4-methoxy-[1,3]thiazolo[4,5-c]pyridin-2-yl]-8-oxa-2-azaspiro[4.5]decane-2-carboxamide] | – | – | – | – | – | –
< 10 nM | < 10 nM | < 1000 nM | < 1000 nM | COc1ncc(C2CCOCC2)c2sc(NC(=O)c3cnc(N)s3)nc12 [compound 241, 2-amino-N-[4-methoxy-7-(oxan-4-yl)-[1,3]thiazolo[4,5-c]pyridin-2-yl]-1,3-thiazole-5-carboxamide] | – | – | – | – | – | –

From patent publication US11186592B2, “Thiazolopyridine derivatives as adenosine receptor antagonists” (MERCK PATENT GMBH, priority 2017, dated 2021)
